Values joined by “and” are separate entries in the source; they are usually repeats but may differ in a detail not shown here. Equal entries are not always repeated. Where two headings read alike, the source gives them in different places. Where no end group is shown, it is not given here.

This is an account of results in US20200354404A1, “PEPT[…], […] AND USES THEREOF” (priority 2019, published 2020).

A short description of data set [1]: Stability of endomorphin-2 in mouse serum. To be noted: read-out: amount (AUC O.D.254) in mouse serum less than amount originally placed. Type of data set: in vitro ADME. The text has this: In addition, as the result of the rapid hydrolysis and enzymatic degradation, a number of peptides are not stable enough to be used in drug discovery, diagnosis, prevention and treatment of diseases.
A graph of stability of EM2 and K763 in mice serum is depicted in FIG. 11.

A short description of data set [2]: Animal studies (protection). To be noted: in vivo.
The nature of data set [3]: in vivo. To be noted: male, Sprague-Dawley, rat, 1 mg/kg; for AUC(0-t): AUClast; for AUC(0-t) / MRT last: iv 1 mg/kg; for MRT last: MRTlast.
The nature of data set [4]: in vitro. To be noted: mouse, mouse serum.
The conditions of data set [5]: cited from earlier work.
The target of data set [6] is OPRM-1 receptor (Homo sapiens, UniProt P35372). The data set is described as follows: Binding to OPRM-1. To be noted: FIG. 10. The text has this: FIG. 10 are graphs depicting binding of K763 and Endomorphin-2 binding to OPRM-1.
OPRM-1 receptor, sequence (P35372 whole entry): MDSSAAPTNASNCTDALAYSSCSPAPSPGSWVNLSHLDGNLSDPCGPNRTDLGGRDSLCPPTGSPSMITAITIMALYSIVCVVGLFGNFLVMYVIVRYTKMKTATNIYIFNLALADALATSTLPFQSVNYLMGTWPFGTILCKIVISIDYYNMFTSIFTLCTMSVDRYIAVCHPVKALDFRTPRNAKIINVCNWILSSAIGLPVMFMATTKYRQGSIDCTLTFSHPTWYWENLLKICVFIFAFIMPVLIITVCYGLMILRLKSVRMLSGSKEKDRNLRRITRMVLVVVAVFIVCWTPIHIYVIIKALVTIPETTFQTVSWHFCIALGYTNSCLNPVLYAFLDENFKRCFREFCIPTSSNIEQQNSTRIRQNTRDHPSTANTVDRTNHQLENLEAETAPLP
The binding is depicted in FIG. 10.

Data set [7] concerns HMGB1-induced TNF secretion. Kind of data set: HMGB1-induced TNF secretion. Type of data set: cell-based. To be noted: FIG. 7.
The subject of data set [8] is mice. Kind of data set: APAP-induced cytokines, liver enzymes and lethality in mice. Type of data set: in vivo.
The conditions of data set [9]: iv 1 mg/kg.
In data set [10] the target is IRTK (Homo sapiens, UniProt P06213). To be noted: Kato et al. 2009; cited from earlier work.
IRTK, sequence (P06213 28-1382): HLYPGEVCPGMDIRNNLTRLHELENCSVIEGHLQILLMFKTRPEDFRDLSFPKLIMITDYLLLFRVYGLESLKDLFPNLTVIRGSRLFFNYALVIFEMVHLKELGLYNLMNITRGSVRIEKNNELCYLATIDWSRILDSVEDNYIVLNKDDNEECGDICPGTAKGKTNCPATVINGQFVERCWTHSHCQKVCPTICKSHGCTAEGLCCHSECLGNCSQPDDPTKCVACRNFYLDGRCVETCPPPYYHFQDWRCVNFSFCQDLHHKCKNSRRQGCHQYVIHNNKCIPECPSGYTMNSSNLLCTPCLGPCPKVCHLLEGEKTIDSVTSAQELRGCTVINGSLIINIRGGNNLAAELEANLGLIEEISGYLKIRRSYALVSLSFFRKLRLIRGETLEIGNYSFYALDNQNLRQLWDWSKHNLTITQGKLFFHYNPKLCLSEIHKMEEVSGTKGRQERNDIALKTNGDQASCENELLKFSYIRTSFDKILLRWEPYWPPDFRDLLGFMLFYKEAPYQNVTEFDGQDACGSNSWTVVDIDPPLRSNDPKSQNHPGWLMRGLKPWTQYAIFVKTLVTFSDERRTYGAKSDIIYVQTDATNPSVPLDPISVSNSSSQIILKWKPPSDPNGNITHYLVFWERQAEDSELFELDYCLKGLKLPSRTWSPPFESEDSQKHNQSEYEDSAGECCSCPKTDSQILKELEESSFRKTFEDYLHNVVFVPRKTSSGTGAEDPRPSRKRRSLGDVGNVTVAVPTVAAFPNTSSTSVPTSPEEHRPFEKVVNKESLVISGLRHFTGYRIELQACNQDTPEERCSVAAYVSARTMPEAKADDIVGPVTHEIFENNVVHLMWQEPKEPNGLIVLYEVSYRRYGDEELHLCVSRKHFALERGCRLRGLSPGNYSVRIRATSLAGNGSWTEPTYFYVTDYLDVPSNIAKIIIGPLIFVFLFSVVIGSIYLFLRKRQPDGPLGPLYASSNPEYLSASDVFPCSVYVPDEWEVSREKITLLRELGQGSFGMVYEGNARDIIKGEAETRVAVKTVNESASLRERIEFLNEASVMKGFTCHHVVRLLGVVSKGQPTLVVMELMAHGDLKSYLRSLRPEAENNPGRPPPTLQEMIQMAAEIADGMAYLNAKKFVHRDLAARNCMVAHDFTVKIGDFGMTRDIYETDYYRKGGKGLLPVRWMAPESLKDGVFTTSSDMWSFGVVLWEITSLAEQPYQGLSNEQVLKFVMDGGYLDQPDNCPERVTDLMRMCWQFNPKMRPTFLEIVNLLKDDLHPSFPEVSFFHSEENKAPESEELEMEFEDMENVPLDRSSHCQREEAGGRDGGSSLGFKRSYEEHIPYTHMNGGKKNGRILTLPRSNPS
A short description of data set [11]: in vitro. To be noted: mouse, serum.
Procedure: Stability of Bradykinin amide and (1-9)-Aza-Bradykinin in serum was measured.

On to `NC(=O)C(Cc1ccccc1)NC(=O)C(Cc1ccccc1)NC(=O)[C@@H]1CCCN1C(=O)C(N)Cc1ccc(O)cc1` (stereo partly drawn) [Endomorphin-2], for which the metabolised at 2 h in data set [1] was about 95%.

For orientation: half-life means the time in which the quantity being followed falls by half. For `N[C@@H](Cc1ccccc1)C(=O)N[C@@H](CO)C(=O)N[C@@H](CO)C(=O)N[C@@H](CCC(=O)O)C(=O)O` [FSSE, reference compound], the “protection in animal studies (in words)” value in data set [2] is on record as “protective”. The half-life is under 1 min in data set [3] and 60 min in [4]. Moreover, the in vivo half-life result in [5] (in vivo) is “less than 5 minutes”.

As to `NC(=O)N(Cc1ccccc1)NC(=O)N(Cc1ccccc1)NC(=O)[C@@H]1CCCN1C(=O)N(N)Cc1ccc(O)cc1` [K763], in data set [6], the “affinity for OPRM-1 compared with Endomorphin-2 (in words)” value is recorded as “stronger affinity than Endomorphin-2” and the “binding to OPRM-1 receptor (in words)” value is given as “shown to bind”.

For orientation: AUC(0-t) means exposure summed from dosing to a finite time, without extrapolation to infinity. A lower AUC(0-t) goes with low exposure. As usually defined, the MRT last is the average time that molecules of a dose stay in the body. With `NC(=O)N(CCC(=O)O)NC(=O)[C@H](CO)NC(=O)[C@H](CO)NC(=O)N(N)Cc1ccccc1` [K883], the “HMGB1-induced TNF secretion (in words)” value in [7] is “inhibits”. In data set [8] (FIG. 8), the “APAP-induced pro-inflammatory cytokines (in words)” value is recorded as “reduction” and the “APAP-induced serum liver enzymes (in words)” value is reported as “reduction”. The “APAP-induced lethality in mice (in words)” value in data set [8] (FIG. 9) is reported as “reduced”. The “protection in animal studies (in words)” value in [2] was “protective”. The Plasma concentration in data set [9] (0.50 hr, individual rats, 1 mg/kg) is 3020 ng/mL and 2500 ng/mL and 3220 ng/mL. In addition, the Plasma concentration in data set [9] (1.0 hr, individual rats, 1 mg/kg) was 814 ng/mL and 1160 ng/mL and 1300 ng/mL. Also, the Plasma concentration in [9] (2.0 hr, individual rats, 1 mg/kg) was 133 ng/mL and 130 ng/mL and 142 ng/mL. In addition, the Plasma concentration in data set [9] (4.0 hr, individual rats, 1 mg/kg) is 17.0 ng/mL and 15.1 ng/mL and 17.1 ng/mL. Moreover, in [9] (6.0 hr, individual rats, 1 mg/kg), the Plasma concentration is 6.49 ng/mL and 4.04 ng/mL and 4.77 ng/mL. Besides, in [9] (8.0 hr, individual rats, 1 mg/kg), the Plasma concentration was 2.0 ng/mL and 0.871 ng/mL and 1.68 ng/mL. This molecule also came in with a tmax in data set [9] (individual rats) of 0 h. In data set [9] (individual rats, 1 mg/kg), the AUClast is 3807 ng·h/mL and 3749 ng·h/mL. The “tmax, Mean” value in [9] (mean of 3 rats) came to 0 h. The half-life in data set [3] (in vivo half-life) was over 69 min. Also, in data set [3] (iv), the level at 0.5 h was determined as 2910 ng/mL, the level at 1 h turned out to be 1090 ng/mL, the level at 2 h came to 135 ng/mL and the level at 4 h is 16.6 ng/mL. In data set [3] (iv), this molecule registered a level at 6 h of 5.1 ng/mL and a level at 8 h of 1.52 ng/mL. In data set [3] (iv, Mean, mean of 3 rats), the AUC(0-t) came out at 3780 ng·h/mL and the MRT last amounted to 33.4 min. For the same molecule, in data set [3] (iv, individual rats), the AUC(0-t) is 3770 ng·h/mL and the MRT last was 32.1 min. The molecule also came in with a half-life in data set [4] of over 900 min.

Consider Ac-Asp1-Ile2-Tyr3-Glu4-Thr5-NH2, for which the “IRTK phosphorylation (in words)” value in data set [10] was “inhibit”.

Consider RPPGFSPFR [bradykinin], for which the metabolised at 3 h in data set [11] was about 97%. In [5] (background statement), the in vivo half-life result is “less than 1 minutes”.
